The subject of one data set is Saccharomyces cerevisiae. Description: IO staining of fungal colonies. The format is cell-based. Particulars: Saccharomyces cerevisiae strain 306, galactosamidase −; agar plates containing indicator. The procedure:
(§1) Agar base (6 g/l soytone, 1.5 g/l yeast extract, 1 g/l glucose, 10 mM sodium phosphate buffer, 13 g/l agar, pH 7.0) was autoclaved and allowed to cool to 50° C. Then 1 mM MnSO4, 1 g/l N-Acetyl-D-galactosamine and: 1-(2-benzoylphenyl)-6-chloro-1H-indol-3-yl-N-acetyl-beta-D-galactosaminide (I21g) were added to final concentrations of 0.64 mM (from a 50 mM stock solution in DMF) and plates poured. Plates were inoculated with Candida albicans, Candida krusei and Saccharomyces cerevisiae and incubated at 37° C. for 48 hours.

A further data set has as its system Candida albicans. As to the kind of experiment: IO staining of fungal colonies. The class given is cell-based. The procedure: as §1
For a further data set, the system named is Candida krusei. Description: IO staining of fungal colonies. The format is cell-based. Particulars: Candida krusei strain 305, galactosamidase −; agar plates containing indicator. The procedure: as §1
Data set [1] deals with Salmonella enteritidis (RKI 05/07992). As to the kind of experiment: MDAB staining of bacterial colonies with indicators I9a, I10a, I11a, I12a on Nutrient Agar, aerobic. The format is cell-based. The note with it: Salmonella enteritidis (b-gal −); aR MDAB, equivalents 1:1; after 48 h of incubation. The procedure:
(§2) Indicators were tested with live cultures on Nutrient Agar plates. Nutrient Agar (5 g/l peptone, 5 g/l NaCl, 2 g/l yeast extract, 1 g/l beef extract, 13 g/l agar, pH 7.4) was autoclaved and allowed to cool to 50° C. Then substrates were added to final concentrations of 150 mg/l (from a 20 mg/ml stock solution in DMF). Optionally MDAB was added to a concentration of 1 mM (from a 200 mM stock solution in DMF) and plates were poured. Agar plates were inoculated with cultures of Eschericha coli (NM1) or Salmonella enteritidis (RKI 05/07992) (pre-grown on nutrient broth for 8-18 hours) and aerobically incubated at 37° C.

The next data set relates to Eschericha coli (NM1). The data set is described as above. The note with it: for colonial morphology, aerobic conditions: Escherichia coli (b-gal +), aR MDAB, equivalents 1:1, after 48 h of incubation; for Effectiveness of indicator system with MDAB under aerobic conditions: in combination with MDAB. The format is cell-based. The method, then:
as §2

The nature of data set [2]: Indication of disulfide reduction by TCEP.
The subject of data set [3] is beta-galactosidase negative Salmonella enteritidis (RKI 05/07992). The format is cell-based. The note with it: S. enteritidis (b-gal negative), 24 h, 150 mg/l substrate and 100 mg/l IPTG; for F: Fluorescence of colonies (strength): 366 nm UV. The procedure:
(§3) Nutrient Agar (5 g/l peptone, 5 g/l NaCl, 2 g/l yeast extract, 1 g/l beef extract, 13 g/l agar, pH 7.4) was autoclaved and allowed to cool to 50° C. Then indicators were added to final concentrations of 150 mg/l (from a 20 mg/ml stock solution in DMF).
(§4) Optionally IPTG was added to 100 mg/l (from a 100 mg/ml stock solution in H2O) and plates were poured. Agar plates were inoculated with cultures of beta-galactosidase positive Eschericha coli (NM1) or beta-galactosidase negative Salmonella enteritidis (RKI 05/07992) (pre-grown on nutrient broth for 8-18 hours) and incubated at 37° C. Plates were inspected at 16, 20, 24 and 48 hours and pictures were recorded at 18, 24, and 48 hours with a Digistore 2 Image documentation system (CAMAG) under white light.
(§5) A considerable number of indicators molecules (Table IVa, IVb) and a selection of labile groups (Table IVc) were tested with various microbial species producing different biomarker enzymes (external stimuli, eS). The color of stains ranges from yellow to red.
(§6) Plating media from Example 10 were examined under 366 nm UV irradiation at 16, 20, 24 and 48 hours for fluorescence by means of Digistore 2 Image documentation system (CAMAG). Loops of bacterial cells, grown for 48 hours on Nutrient Agar plates containing 150 mg/l beta-D-galactosidase indicator and 100 mg/l IPTG, were directly streaked into wells of black clear bottom microtiter plates. Fluorescence scans were recorded on a Spectramax M5 (Molecular Devices).

Data set [4] has as its system beta-galactosidase positive Eschericha coli (NM1). As to the kind of experiment: IO staining of bacterial colonies on Nutrient Agar (color, fluorescence, localization, growth). On C: Color of colonies (strength): key: −: absent; +/−: weak; +: strong; ++: very strong. On F: Fluorescence of colonies (strength): key: −: absent; +/−: weak; +: strong; ++: very strong. On G: Growth of colonies: key: −: absent; +/−: weak; +: strong; ++: very strong. On L: Localization of stain on colonies: key: −: absent; +/−: weak; +: strong; ++: very strong. The class given is cell-based, E. coli. The note with it: 150 mg/l substrate and 100 mg/l IPTG; for F: Fluorescence of colonies (colour) / G: Growth of colonies / L: Localization of stain on colonies / F: Fluorescence of colonies (strength): 24 h; for F: Fluorescence of colonies (colour) / F: Fluorescence of colonies (strength): 366 nm UV; for C: Color of colonies (colour of stain) / C: Color of colonies (strength): 24 h on Nutrient Agar; for G: Growth of colonies / L: Localization of stain on colonies / F: Fluorescence of colonies (strength) / C: Color of colonies (strength): E. coli. The procedure: as §3, §4, §5, §6

Another data set deals with pig liver esterase. Description: Indication of carbamate hydrolysis by esterase. The format is biochemical. Particulars: prolonged exposure to pig liver esterase.
Data set [5] is described as follows: Indication of carbamate hydrolysis by alkali. Particulars: short treatment with 1N aqueous NaOH solution.
Data set [6] in a line: Reaction of MDAB with active signalogens (aldol donor properties). Particulars: compared with 6-chloro-1H-indol-3-ol (aS3).
Data set [7] in a line: Water solubility and fluorescence of IO dyes from ester indicators. The format is physicochemical. The note with it: above pH 5. An excerpt:
Upon further acidification said dyes formed orange colored non-fluorescent precipitates from aqueous solutions. […] Evidently, said dyes are highly acidic in nature and highly fluorescent in deprotonated form.

The mark [8] stands for this setting: Candida albicans strain 304, galactosamidase +, agar plates containing indicator.

“Also recorded” adds a separate entry of the source.
Wherever growth is given: key: −: absent; +/−: weak/variable; +: strong.

Take `CC(=O)N[C@H]1[C@H](Oc2cn(-c3ccccc3C(=O)c3ccccc3)c3cc(Cl)ccc23)O[C@H](CO)[C@H](O)[C@@H]1O` [Indicator I21g, 1-(2-Benzoylphenyl)-6-chloro-1H-indol-3-yl-N-acetyl-beta-D-galactosaminide]: the figures for the Color entry with Saccharomyces cerevisiae, with Candida albicans (setting [8]) and in the data set with Candida krusei were “Cream”, “Yellow” and “Cream”, respectively. The Growth result with Saccharomyces cerevisiae, in the data set with Candida albicans (setting [8]) and with Candida krusei was “+/−” throughout. The “Color of fungal colonies producing matching external stimulus” value in the data set on Candida albicans (D-galactosamidase biomarker of Candida albicans) is “bright yellow”.
As to `OC[C@H]1O[C@@H](Oc2cn(-c3ccccc3)c3cc(Cl)ccc23)[C@H](O)[C@@H](O)[C@H]1O` [Indicator I9a, 6-Chloro-1-phenyl-1H-indol-3-yl-beta-D-galactopyranoside], the “colonial morphology, aerobic conditions” value in data set [1] was “Cream colored colonies”; with Eschericha coli (NM1), “Red colored colonies”. Also, the “Effectiveness of indicator system with MDAB under aerobic conditions” value (“Effectiveness of indicator system” for short) with Eschericha coli (NM1) is given as “effective”.
As for `CC(=O)c1ccccc1-n1cc(SSc2cn(-c3ccccc3C(C)=O)c3ccccc23)c2ccccc21` [Indicator I33, Bis[1-(2-acetylphenyl)-1H-indol-3-yl]-disulfane], the “Signal on disulfide reduction, alkaline conditions” value in data set [2] (alkaline conditions (1 N aqueous sodium hydroxide)) is reported as “the solution turned yellow”. In addition, the “Signal on disulfide reduction, neutral conditions” value in data set [2] (neutral conditions) is recorded as “no detectable signal”.
On to `COC(=O)c1ccccc1-n1cc(O[C@@H]2O[C@H](CO)[C@H](O)[C@H](O)[C@H]2O)c2ccccc21` [Indicator I10a, 1-[2-(Methoxycarbonyl)phenyl]-1H-indol-3-yl-beta-D-galactopyranoside], for which, in data set [3], the “C: Color of colonies (strength)” value was “−” and the “F: Fluorescence of colonies (strength)” value is “−”. Moreover, the “colonial morphology, aerobic conditions” value in [1] is listed as “Cream colored colonies”. The “Effectiveness of indicator system” value in the data set with Eschericha coli (NM1) is recorded as “effective”. Further, in data set [4], the “F: Fluorescence of colonies (colour)” value is recorded as “green”, the “C: Color of colonies (colour of stain)” value was “yellow-green”, the “G: Growth of colonies” value is “+” and the “L: Localization of stain on colonies” value is recorded as “−”. Also, in data set [4], the “F: Fluorescence of colonies (strength)” value is “+” and the “C: Color of colonies (strength)” value was “+”.
As for `CCNC(=O)Oc1cn(-c2ccccc2C(=O)c2ccccc2)c2ccccc12` [Indicator I32, 1-(2-Benzoylphenyl)-1H-indol-3-yl ethyl carbamate], in the data set with pig liver esterase, the “Signal on carbamate hydrolysis by esterase” value is “yellow precipitate”. Further, in data set [5], the “Signal on alkaline carbamate hydrolysis” value is on record as “yellow precipitate”.
As for `COC(=O)c1ccccc1-n1cc(O[C@@H]2O[C@H](CO)[C@H](O)[C@H](O)[C@H]2O)c2c(Cl)c(Br)ccc21` [Indicator I12a, 5-Bromo-4-chloro-1-[2-(methoxycarbonyl)phenyl]-1H-indol-3-yl-beta-D-galactopyranoside], in data set [3], the “C: Color of colonies (strength)” value is recorded as “−” and the “F: Fluorescence of colonies (strength)” value is reported as “−”. In data set [1], the “colonial morphology, aerobic conditions” value is listed as “Cream colored colonies”. In the data set on Eschericha coli (NM1), the “colonial morphology, aerobic conditions” value is listed as “Brown colored colonies” and the “Effectiveness of indicator system” value is listed as “effective”. In data set [4], the “F: Fluorescence of colonies (colour)” value is given as “green”, the “C: Color of colonies (colour of stain)” value was “yellow-green”, the “G: Growth of colonies” value is recorded as “+” and the “L: Localization of stain on colonies” value is listed as “−”. For the same compound, in data set [4], the “F: Fluorescence of colonies (strength)” value is “+/−” and the “C: Color of colonies (strength)” value is on record as “+/−”.
`Oc1c[nH]c2ccc(Br)c(Cl)c12` [aS4, 5-Bromo-4-chloro-1H-indol-3-ol]: the “Efficiency as aldol donor with MDAB” value in data set [6] is given as “far more effective”.
Regarding `O=C1c2ccccc2-n2c1c(O)c1ccccc12` [IO10, 11-Hydroxy-10H-indolo[1,2-a]indol-10-one], the Solubility in water entry in data set [7] was “freely soluble; also recorded: readily water-soluble”.
Take `COC(=O)c1ccccc1-n1cc(O[C@@H]2O[C@H](CO)[C@H](O)[C@H](O)[C@H]2O)c2ccc(Cl)cc21` [Indicator I11a, 6-Chloro-1-[2-(methoxycarbonyl)phenyl]-1H-indol-3-yl-beta-D-galactopyranoside]: in data set [3], the “C: Color of colonies (strength)” value was “−” and the “F: Fluorescence of colonies (strength)” value is reported as “−”. The “colonial morphology, aerobic conditions” value in [1] is “Cream colored colonies”. Also, the “Effectiveness of indicator system” value in the data set on Eschericha coli (NM1) was “effective”. In data set [4], the “F: Fluorescence of colonies (colour)” value is reported as “green”, the “C: Color of colonies (colour of stain)” value is listed as “yellow-green”, the “G: Growth of colonies” value is reported as “+” and the “L: Localization of stain on colonies” value is “−”. Also, in data set [4], the “F: Fluorescence of colonies (strength)” value is “+” and the “C: Color of colonies (strength)” value is listed as “+”.
For the compound `Oc1c[nH]c2cc(Cl)c(Br)cc12` [aS5, 5-Bromo-6-chloro-1H-indol-3-ol], the “Efficiency as aldol donor with MDAB” value in data set [6] is listed as “far more effective”.

The values are drawn from US8940909B2, “Indicator platform” (Biosynth AG, priority 2009, dated 2015).
